Data taken from patent US9226503B2, “Composition and method for attraction of emerald ash borer Agrilus planipennis fairmaire (coleoptera: buprestidae)” (Her Majesty the Queen in Right of Canada, as represented by …, priority 2011, dated 2016).

Experiments:
[1] = Effect of light on (3Z)-lactone (isomerization); format: physicochemical; conditions: for isomerization in direct sunlight: quartz cuvette or surface of female cadavers, 2-3 days
Method: To determine whether light would promote the isomerization from (3Z) to (3E)-lactone, 20 mg of (3Z)-lactone was placed neat on a glass slide 10 mm below a UV light (UVG-54 handheld UV-lamp, 254 nm, 6w; UVP Upland Calif., USA) for three d. Subsamples (taken as 1 mg in a pipette) were analyzed by GC/MS at regular intervals and the ratio of (3E):(3Z)-lactone was recorded. In addition, 6 mg of each of (3Z)- and (3E)-lactones (neat) were coated on the quartz surface of a cuvette and exposed outdoors to sunlight at 11° C. mean temperature for 9 d for an average of 5 h a day. Finally, (3Z)-lactone was coated (4 mg) on the dorsal surface of abdomen and […] of 3 female EAB cadavers that were exposed to sunlight for 6 h per day for 1, 2 or 3 d at 10° C. mean temperature; cadavers were stored at 4° C. between sunny days. The lactones were removed from cuvettes and cadavers with hexane washing and analysed by GC/MS to determine the E:Z ratio.

A. planipennis = assay: Field trapping 2011 experiment 1: dose-response to (3Z)-lactone with (3Z)-hexenol, dark green traps; format: in vivo, Agrilus planipennis; conditions: in combination with (3Z)-hexenol
Method: Two trapping experiments were conducted in green and white ash plantations (F. pennsylvanica Marsch and F. americana L.) located 40-60 km southeast of Sarnia, Ontario in 2011. Trees were 20-30 yr old, 5-8 m tall, 12-18 cm in diameter, and spaced 2-3 m apart within and between rows. Five sites were used in total: four were green ash and the fifth was a white ash plantation. Trees at four of the sites generally appeared healthy with few or no signs of decline and only a few with obvious signs and symptoms of infestation by A. planipennis. At the fifth site, obvious crown decline and signs of infestation were apparent on about one-quarter of trees.
Green prism sticky traps (0.30 cm×35.00 cm×58.75 cm) (Synergy Semiochemicals Corp., Burnaby, BC) were used in all field trials, deployed using modified umbrella rig spreaders (Zing Products, Westport, Mass.). Traps were spaced 20-25 m apart and lure treatments replicated in randomized complete block designs. Traps were deployed either using ropes tied between two trees or using a single line over a canopy branch, as described further below for each specific experimental objective. Traps were typically checked every 2 wk and A. planipennis were collected, counted, and sexed.
The two trapping experiments tested the (3Z)-lactone with and without (3Z)-hexenol, at different dosages and heights within the canopy. Experiment 1 was designed to determine the optimum release rate for attractiveness of (3Z)-lactone to male A. planipennis, in combination with (3Z)-hexenol. Dark green (540-nm wavelength) sticky traps (Francese et al 2010a) were suspended using ropes tied between two trees in the mid-canopy and baited with a (3Z)-hexenol lure at release rate of (50-100 mg/day) (Synergy Semiochemicals, Burnaby, B.C.) plus a rubber septum (Wheaton) loaded with either 0, 0.1 mg, 1.0 mg, 10.0 mg, or 50.0 mg of (3Z)-lactone. Respective release rates of the lactone were estimated as ˜2.4 μg/day; ˜22 μg/day; ˜160 μg/day; and −600 μg/day, based on volatile collections on Super-Q® at 25° C. (Silk et al. 2011). (3Z)-Lactone lures were estimated to last three weeks in the field and were replaced once. Trapping was conducted from 9 June-21 July. Lure treatments were replicated 10 times with eight blocks at one site (Anika Mills) and two blocks at a second site (Nauvoo Ranch). (3Z)-Hexenol lures were not changed during the experiment.
Numbers of A. planipennis captured in the trapping experiments were subjected to ANOVA separately for males and females. In experiment 1, ANOVA was used to test the effect of release rate on captures of females and males. Holm-Sidak comparisons were made between treatments and the control, (3Z)-hexenol alone. In experiment 2, we used the general linear model: mean catch=lactone+GLV+trap height+lactone*trap height+GLV*trap height+lactone*GLV+lactone*GLV*trap height+error, in SAS GLM (SAS Institute 1999-2003). Residuals were tested for homogeneity of variance and normality, and a ln(y+1) transformation was used where necessary. We present the untransformed last squares treatment means and their standard errors, along with statistics (P>F) from ANOVA of transformed data.

SMILES	effect of storing in a pyrex container (filters out UV-light) [1]	conjugated isomer formed on UV exposure ([1]; UV lamp 254 nm, GC/MS) [%]	(3E):(3Z) ratio, initial lactone sample ([1]; before UV exposure)	(3E):(3Z) ratio after exposure to UV light ([1]; neat, UV lamp 254 nm, three d)	stability to isomerization under normal laboratory fluorescent lighting ([1]; preliminary studies)	isomerization in direct sunlight [1]	release rate beyond which captures of males decline (A. planipennis; dark green traps)	trap capture of males, effect of (3Z)-lactone release rate (A. planipennis; 0-50.0 mg lures, p=0.035)	trap capture of females, effect of (3Z)-lactone release rate (A. planipennis; 0-50.0 mg lures, p=0.315)	captures of males compared to (3Z)-hexenol alone, 0.1 mg dose (A. planipennis; 0.1 mg lure, release rate 2.4 μg/day at 25° C., p=0.003)	captures of males compared to (3Z)-hexenol alone, 1.0 mg dose (A. planipennis; 1.0 mg lure, p=0.052)
O=C1C/C=C\CCCCCCCCO1 [(3Z)-lactone, (3Z)-dodecen-12-olide]	preventing photoisomerisation	< 1	0.028	0.60	very stable	very slow isomerization	ca. 160 μg/day	varied significantly with (3Z)-lactone release rate	not influenced by (3Z)-lactone release rate	highest	marginal increase in captures of males
O=C1C/C=C/CCCCCCCCO1 [(3E)-lactone, (3E)-dodecen-12-olide]	–	–	–	–	–	very slow isomerization	–	–	–	–	–
